Going from `Cc1cc(Cl)ccc1OCC(=O)O` to `CC(C)OC(=O)Nc1cccc(Cl)c1`, the logP rises from 2.69 to 3.42.

First: CCCN(CCC)c1c([N+](=O)[O-])cc(S(C)(=O)=O)cc1[N+](=O)[O-]
Second: CCCN(CC1CC1)c1c([N+](=O)[O-])cc(C(F)(F)F)cc1[N+](=O)[O-]
The logP of the first is lower: 4.78 for the first, 5.16 for the second.

`CCC(C)n1c(=O)[nH]c(C)c(Br)c1=O` (centres undefined) and `Cc1[nH]c(=O)n(C(C)(C)C)c(=O)c1Cl` are within 0.2 log units of each other in logP: 1.33 for the first, 1.44 for the second.

First: Nc1cc(Cl)cc(C(=O)O)c1Cl
Second: O=C(O)c1c(Cl)ccc(Cl)c1Cl
The logP of the first is lower: 1.46 for the first, 4.34 for the second.

First: CC(Cl)(Cl)C(=O)O
Second: COC(=O)C=C(C)OP(=O)(OC)OC
The logP of the first is higher: 1.34 for the first, 0.55 for the second.

Compared with `ClC1=C(Cl)[C@]2(Cl)C3C(Cl)C(Cl)CC3[C@@]1(Cl)C2(Cl)Cl` (some centres undefined), `CC(C)Nc1nc(Cl)nc(NC(C)C)n1` is lower in logP: 5.89 for the first, 3.09 for the second.

Going from `CCC(C)Nc1c([N+](=O)[O-])cc(C(C)(C)C)cc1[N+](=O)[O-]` (centres undefined) to `CN(C)C(=O)C(c1ccccc1)c1ccccc1`, the logP falls from 4.54 to 2.17.
